# Measured values as given in patent US20240368135A1 (VERTEX PHARMACEUTICALS INCORPORATED, priority 2021, published 2024).
# Target: human NaV 1.8 (Homo sapiens, UniProt Q9Y5Y9)
# Assay: E-VIPR assay detecting and measuring NaV inhibition properties
# Assay type: cell-based
# Conditions: HEK cells expressing truncated human NaV 1.8; no human serum; read-out: IC50 in the E-VIPR Assay
# In short: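 Membrane potential was followed by coumarin/oxonol FRET during electrical field stimulation of matrigel-seeded HEK cells carrying truncated human NaV1.8 plus KIR2.1. Dosing used 11 points, 3-fold steps, top 300 nM final, 0.625% DMSO, with or without 25% human serum.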
# Chain of human NaV 1.8 (Q9Y5Y9 126-399 limits assumed): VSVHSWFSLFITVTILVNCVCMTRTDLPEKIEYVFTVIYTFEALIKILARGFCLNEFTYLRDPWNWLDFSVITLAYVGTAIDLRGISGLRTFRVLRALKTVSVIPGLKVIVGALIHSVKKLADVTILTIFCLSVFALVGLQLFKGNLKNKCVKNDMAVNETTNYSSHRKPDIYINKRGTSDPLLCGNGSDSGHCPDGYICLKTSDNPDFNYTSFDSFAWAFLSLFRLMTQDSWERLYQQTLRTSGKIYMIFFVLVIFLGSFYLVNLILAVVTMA
# Chain of human NaV 1.8 (Q9Y5Y9 660-890 limits assumed): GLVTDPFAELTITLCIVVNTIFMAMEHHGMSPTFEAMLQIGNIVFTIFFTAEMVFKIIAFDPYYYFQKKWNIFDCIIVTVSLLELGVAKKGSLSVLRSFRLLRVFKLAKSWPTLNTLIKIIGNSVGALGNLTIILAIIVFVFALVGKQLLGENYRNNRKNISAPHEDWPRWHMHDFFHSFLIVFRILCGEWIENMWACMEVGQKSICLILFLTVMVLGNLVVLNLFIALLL
# Chain of human NaV 1.8 (Q9Y5Y9 1148-1722 limits assumed): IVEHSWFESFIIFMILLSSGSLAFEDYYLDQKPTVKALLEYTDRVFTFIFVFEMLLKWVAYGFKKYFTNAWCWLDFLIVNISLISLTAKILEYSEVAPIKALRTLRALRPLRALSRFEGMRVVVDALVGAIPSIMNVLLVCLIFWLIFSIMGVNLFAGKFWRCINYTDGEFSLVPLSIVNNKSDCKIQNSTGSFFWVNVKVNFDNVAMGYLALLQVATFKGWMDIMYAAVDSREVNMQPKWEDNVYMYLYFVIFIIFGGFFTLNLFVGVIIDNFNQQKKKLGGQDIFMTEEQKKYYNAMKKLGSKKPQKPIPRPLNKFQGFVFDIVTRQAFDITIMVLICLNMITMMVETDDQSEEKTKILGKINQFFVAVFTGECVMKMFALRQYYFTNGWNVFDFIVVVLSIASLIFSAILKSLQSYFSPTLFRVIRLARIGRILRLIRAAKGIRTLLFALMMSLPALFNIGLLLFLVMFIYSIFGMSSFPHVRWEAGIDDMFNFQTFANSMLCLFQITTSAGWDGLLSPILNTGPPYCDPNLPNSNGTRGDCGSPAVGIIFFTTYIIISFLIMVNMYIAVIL
row,SMILES,IC50
1,"C[C@H]1[C@@H](c2ccc(F)c(F)c2OCCN2CC3(COC3)C2)[C@H](C(=O)Nc2ccnc(CO)c2)O[C@@]1(C)C(F)(F)F [Compound 618, (2R,3S,4S,5R)-3-(2-(2-(2-oxa-6-azaspiro[3.3]heptan-6-yl)ethoxy)-3,4-difluorophenyl)-N-(2-(hydroxymethyl)pyridin-4-yl)-4,5-dimethyl-5-(trifluoromethyl)tetrahydrofuran-2-carboxamide]",10 to 100 nM
2,"Cc1nocc1NC(=O)[C@@H]1O[C@@](C)(C(F)(F)F)[C@@H](C)[C@H]1c1ccc(F)c(F)c1OCCN1CC2(COC2)C1 [Compound 619, (2R,3S,4S,5R)-3-(2-(2-(2-oxa-6-azaspiro[3.3]heptan-6-yl)ethoxy)-3,4-difluorophenyl)-4,5-dimethyl-N-(3-methylisoxazol-4-yl)-5-(trifluoromethyl)tetrahydrofuran-2-carboxamide]",10 to 100 nM
3,"C[C@H]1[C@@H](c2ccc(F)c(F)c2OCCN2CC3(COC3)C2)[C@H](C(=O)Nc2ccc3nncn3c2)O[C@@]1(C)C(F)(F)F [Compound 620, (2R,3S,4S,5R)-3-(2-(2-(2-oxa-6-azaspiro[3.3]heptan-6-yl)ethoxy)-3,4-difluorophenyl)-N-([1,2,4]triazolo[4,3-a]pyridin-6-yl)-4,5-dimethyl-5-(trifluoromethyl)tetrahydrofuran-2-carboxamide]",10 to 100 nM
4,"C[C@H]1[C@@H](c2ccc(F)c(F)c2OCC2COC2)[C@H](C(=O)Nc2ccc3cnnn3c2)O[C@@]1(C)C(F)(F)F [Compound 621, (2R,3S,4S,5R)-3-[3,4-difluoro-2-(oxetan-3-ylmethoxy)phenyl]-4,5-dimethyl-N-(triazolo[1,5-a]pyridin-6-yl)-5-(trifluoromethyl)tetrahydrofuran-2-carboxamide]",< 10 nM
5,"C=C(CO)COc1c([C@H]2[C@H](C(=O)Nc3ccc4cnnn4c3)O[C@@](C)(C(F)(F)F)[C@H]2C)ccc(F)c1F [Compound 622, (2R,3S,4S,5R)-3-[3,4-difluoro-2-[2-(hydroxymethyl)allyloxy]phenyl]-4,5-dimethyl-N-(triazolo[1,5-a]pyridin-6-yl)-5-(trifluoromethyl)tetrahydrofuran-2-carboxamide]",< 10 nM
6,"Cc1nocc1NC(=O)[C@@H]1O[C@@](C)(C(F)(F)F)[C@@H](C)[C@H]1c1ccc(F)c(F)c1OC[C@H](C)N1CC2(COC2)C1 [Compound 623, (2R,3S,4S,5R)-3-[3,4-difluoro-2-[(2S)-2-(2-oxa-6-azaspiro[3.3]heptan-6-yl)propoxy]phenyl]-4,5-dimethyl-N-(3-methylisoxazol-4-yl)-5-(trifluoromethyl)tetrahydrofuran-2-carboxamide]",10 to 100 nM
7,"Cc1nocc1NC(=O)[C@@H]1O[C@@](C)(C(F)(F)F)[C@@H](C)[C@H]1c1ccc(F)c(F)c1OC[C@@H](C)N1CC2(COC2)C1 [Compound 624, (2R,3S,4S,5R)-3-[3,4-difluoro-2-[(2R)-2-(2-oxa-6-azaspiro[3.3]heptan-6-yl)propoxy]phenyl]-4,5-dimethyl-N-(3-methylisoxazol-4-yl)-5-(trifluoromethyl)tetrahydrofuran-2-carboxamide]",100 to 1000 nM
8,"Cc1nocc1NC(=O)[C@@H]1O[C@@](C)(C(F)(F)F)[C@@H](C)[C@H]1c1ccc(F)c(F)c1OCCN1CC(F)C1 [Compound 625, (2R,3S,4S,5R)-3-(3,4-difluoro-2-(2-(3-fluoroazetidin-1-yl)ethoxy)phenyl)-4,5-dimethyl-N-(3-methylisoxazol-4-yl)-5-(trifluoromethyl)tetrahydrofuran-2-carboxamide]",< 10 nM
9,"Cc1nocc1NC(=O)[C@@H]1O[C@@](C)(C(F)(F)F)[C@@H](C)[C@H]1c1ccc(F)c(F)c1OCCN1CC(C)(O)C1 [Compound 626, (2R,3S,4S,5R)-3-(3,4-difluoro-2-(2-(3-hydroxy-3-methylazetidin-1-yl)ethoxy)phenyl)-4,5-dimethyl-N-(3-methylisoxazol-4-yl)-5-(trifluoromethyl)tetrahydrofuran-2-carboxamide]",100 to 1000 nM
10,"COC1CN(CCOc2c([C@H]3[C@H](C(=O)Nc4conc4C)O[C@@](C)(C(F)(F)F)[C@H]3C)ccc(F)c2F)C1 [Compound 627, (2R,3S,4S,5R)-3-(3,4-difluoro-2-(2-(3-methoxyazetidin-1-yl)ethoxy)phenyl)-4,5-dimethyl-N-(3-methylisoxazol-4-yl)-5-(trifluoromethyl)tetrahydrofuran-2-carboxamide]",10 to 100 nM
11,"Cc1nocc1NC(=O)[C@@H]1O[C@@](C)(C(F)(F)F)[C@@H](C)[C@H]1c1ccc(F)c(F)c1OCCN1CC(OC(F)F)C1 [Compound 628, (2R,3S,4S,5R)-3-(2-(2-(3-(difluoromethoxy)azetidin-1-yl)ethoxy)-3,4-difluorophenyl)-4,5-dimethyl-N-(3-methylisoxazol-4-yl)-5-(trifluoromethyl)tetrahydrofuran-2-carboxamide]",10 to 100 nM
12,"Cc1nocc1NC(=O)[C@@H]1O[C@@](C)(C(F)(F)F)[C@@H](C)[C@H]1c1ccc(F)c(F)c1OCCN1CC(C(F)F)C1 [Compound 629, (2R,3S,4S,5R)-3-(2-(2-(3-(difluoromethyl)azetidin-1-yl)ethoxy)-3,4-difluorophenyl)-4,5-dimethyl-N-(3-methylisoxazol-4-yl)-5-(trifluoromethyl)tetrahydrofuran-2-carboxamide]",10 to 100 nM
13,"Cc1nocc1NC(=O)[C@@H]1O[C@@](C)(C(F)(F)F)[C@@H](C)[C@H]1c1ccc(F)c(F)c1OCCN1CC(C)(F)C1 [Compound 630, (2R,3S,4S,5R)-3-(3,4-difluoro-2-(2-(3-fluoro-3-methylazetidin-1-yl)ethoxy)phenyl)-4,5-dimethyl-N-(3-methylisoxazol-4-yl)-5-(trifluoromethyl)tetrahydrofuran-2-carboxamide]",10 to 100 nM
14,"Cc1nocc1NC(=O)[C@@H]1O[C@@](C)(C(F)(F)F)[C@@H](C)[C@H]1c1ccc(F)c(F)c1OCCNC1COC1 [Compound 631, (2R,3S,4S,5R)-3-(3,4-difluoro-2-(2-(oxetan-3-ylamino)ethoxy)phenyl)-4,5-dimethyl-N-(3-methylisoxazol-4-yl)-5-(trifluoromethyl)tetrahydrofuran-2-carboxamide]",10 to 100 nM
15,"Cc1nocc1NC(=O)[C@@H]1O[C@@](C)(C(F)(F)F)[C@@H](C)[C@H]1c1ccc(F)c(F)c1OCCN[C@@H]1CCOC1 [Compound 632, (2R,3S,4S,5R)-3-(3,4-difluoro-2-(2-(((R)-tetrahydrofuran-3-yl)amino)ethoxy)phenyl)-4,5-dimethyl-N-(3-methylisoxazol-4-yl)-5-(trifluoromethyl)tetrahydrofuran-2-carboxamide]",10 to 100 nM
16,"Cc1nocc1NC(=O)[C@@H]1O[C@@](C)(C(F)(F)F)[C@@H](C)[C@H]1c1ccc(F)c(F)c1OCCN1CC2CC(C1)O2 [Compound 633, (2R,3S,4S,5R)-3-(2-(2-(6-oxa-3-azabicyclo[3.1.1]heptan-3-yl)ethoxy)-3,4-difluorophenyl)-4,5-dimethyl-N-(3-methylisoxazol-4-yl)-5-(trifluoromethyl)tetrahydrofuran-2-carboxamide]",10 to 100 nM
17,"Cc1nocc1NC(=O)[C@@H]1O[C@@](C)(C(F)(F)F)[C@@H](C)[C@H]1c1ccc(F)c(F)c1OCCN1C[C@H]2COC[C@H]2C1 [Compound 634, (2R,3S,4S,5R)-3-(3,4-difluoro-2-(2-((3aR,6aS)-tetrahydro-1H-furo[3,4-c]pyrrol-5(3H)-yl)ethoxy)phenyl)-4,5-dimethyl-N-(3-methylisoxazol-4-yl)-5-(trifluoromethyl)tetrahydrofuran-2-carboxamide]",10 to 100 nM
18,C[C@H]1[C@@H](c2ccc(F)c(F)c2OCCN2CC(F)C2)[C@H](C(=O)Nc2ccc3nncn3c2)O[C@@]1(C)C(F)(F)F [Compound 635],10 to 100 nM
19,C[C@H]1[C@@H](c2ccc(F)c(F)c2OCCN2CC3(COC3)C2)[C@H](C(=O)Nc2cccnc2)O[C@@]1(C)C(F)(F)F [Compound 636],10 to 100 nM
20,"CC(=O)N(C)c1cc(NC(=O)[C@@H]2O[C@@](C)(C(F)(F)F)[C@@H](C)[C@H]2c2ccc(F)c(F)c2OCCN2CC3(COC3)C2)ccn1 [Compound 637, (2R,3S,4S,5R)-N-[2-[acetyl(methyl)amino]-4-pyridyl]-3-[3,4-difluoro-2-[2-(2-oxa-6-azaspiro[3.3]heptan-6-yl)ethoxy]phenyl]-4,5-dimethyl-5-(trifluoromethyl)tetrahydrofuran-2-carboxamide]",10 to 100 nM
21,"C[C@H]1[C@@H](c2ccc(F)c(F)c2O)[C@H](C(=O)Nc2ccnc(CO)c2)O[C@@]1(C)C(F)(F)F [Compound 638, (2R,3S,4S,5R)-3-(3,4-difluoro-2-hydroxyphenyl)-N-(2-(hydroxymethyl)pyridin-4-yl)-4,5-dimethyl-5-(trifluoromethyl)tetrahydrofuran-2-carboxamide]",10 to 100 nM
22,"COCCOc1c([C@H]2[C@H](C(=O)Nc3ccnc(CO)c3)O[C@@](C)(C(F)(F)F)[C@H]2C)ccc(F)c1F [Compound 639, (2R,3S,4S,5R)-3-(3,4-difluoro-2-(2-methoxyethoxy)phenyl)-N-(2-(hydroxymethyl)pyridin-4-yl)-4,5-dimethyl-5-(trifluoromethyl)tetrahydrofuran-2-carboxamide]",< 10 nM
23,"C[C@H]1[C@@H](c2ccc(F)c(F)c2OCCN=S(C)(C)=O)[C@H](C(=O)Nc2ccnc(CO)c2)O[C@@]1(C)C(F)(F)F [Compound 640, (2R,3S,4S,5R)-3-(2-(2-((dimethyl(oxo)-λ^6-sulfaneylidene)amino)ethoxy)-3,4-difluorophenyl)-N-(2-(hydroxymethyl)pyridin-4-yl)-4,5-dimethyl-5-(trifluoromethyl)tetrahydrofuran-2-carboxamide]",10 to 100 nM
24,"C[C@H]1[C@@H](c2ccc(F)c(F)c2OCCOC(F)F)[C@H](C(=O)Nc2ccnc(CO)c2)O[C@@]1(C)C(F)(F)F [Compound 641, (2R,3S,4S,5R)-3-(2-(2-(difluoromethoxy)ethoxy)-3,4-difluorophenyl)-N-(2-(hydroxymethyl)pyridin-4-yl)-4,5-dimethyl-5-(trifluoromethyl)tetrahydrofuran-2-carboxamide]",< 10 nM
